Test results taken from patent US6258790A, “Antisense modulation of integrin α4 expression” (Isis Pharmaceuticals, Inc., priority 1999, dated 2001).

Tests used:
[1] = system: A375 melanoma cell adherence to HUVEC; experiment: Adherence of A375 melanoma cells to HUVEC (flow cytometry); format: cell-based, human; conditions: 10 μM; compared to TNF treated control
Description: Human umbilical vein endothelial cells (HUVEC) (Clonetics, San Diego Calif.) were cultured in EGM-UV medium (Clonetics)and treated with TNFA for 20 hours to induce VCAM expression. A375 melanoma cells were electroporated with ISIS 107248 as described above. Using antibody to PECAM, a specific marker for endothelial cells, flow cytometry was used to quantitate the inhibition of adherence of A375 melanoma cells to HUVECs. Compared to control (TNF treated, no oligonucleotide), ISIS 107248 (10 μM) inhibited A375 melanoma cell adherence to HUVEC by approximately 85%. An antibody to integrin α4 inhibited adherence by approximately 72%. Melanoma cells represent a clinically relevant model because a statistically significant correlation has been shown between increased expression of VLA-4 expression(of which integrin α4 is one member) and time to progression and overall survival time of patients with melanoma. Schadendorf et al., J. Natl. Cancer Inst., 1995, 87, 366-371.

[2] = system: Jurkat T-cell adherence to HUVEC; experiment: Adherence of Jurkat T-cells to HUVEC (flow cytometry); format: cell-based, human
Description: A similar adherence assay was performed using Jurkat T-cells instead of melanoma cells, again detecting adherence to HUVEC. Because Jurkat cells are smaller and less complex, they can be separated from HUVEC by gating on the basis of differences in forward light scatter and side scatter. For 5000 HUVEC events, adherent Jurkat cells were quantitated. At oligonucleotide concentrations of 1, 3, 10, and 30 μM ISIS 107248, adherence of Jurkat cells to HUVEC was 0, 12%, 32% and 63%, respectively.

[3] = system: leukocyte trafficking into the central nervous system of EAE mice; experiment: Reduction of leukocyte trafficking into the central nervous system of EAE mice (immunostaining of sections); format: in vivo, mouse (CSJLF1)
Description: The pieces were embedded in O.C.T. tissue freezing medium (Ted Pella Inc., Redding, Calif.) on dry ice and methylbutane. Four-micron frozen sections were cut and air dried overnight. The sections were fixed for three minutes in ice-cold acetone and then placed on a Dako Autostainer (Dako Corporation, Carpinteria, Calif.) and treated in the following steps: 5 minutes in 0.03% H2 O2, 5 minutes in 5% donkey serum diluted in PBS, 45 minutes in appropriately diluted primary antibody, 30 minutes in horseradish peroxidase-labeled donkey anti-rat secondary antibody (Jackson Laboratory, Bar Harbor, Me.). Sections were rinsed between treatments with PBS. All the antibodies used were rat anti-mouse from PharMingen (San Diego, Calif.), except BM-8, which was from Bachem Bioscience Inc. (King of Prussia, Pa.). The immunostaining was developed with DAB (Dako Corporation) and counterstained with hematoxylin.

[4] = system: Mouse collagen-induced arthritis (CIA); experiment: Mouse collagen-induced arthritis (CIA) model for rheumatoid arthritis; format: in vivo, mouse (DBA/1LacJ)
Description: A model for human rheumatoid arthritis has been developed wherein mice are immunized with bovine type II collagen. Anderson et al., J. Immunol. 1991 147, 1189-1193, citing Trentham et al., J. Exp. Med 1977, 146, 857. Swelling and inflammation of the joints follows in approximately 3 weeks, with joint distortion and ankylosis typical of rheumatoid arthritis. This model has been used to study the effects of the antisense oligonucleotide 17044, targeted to mouse integrin α4, on arthritis in mice.
DBA/1LacJ mice were obtained from Jackson Laboratory, Bar Harbor, Me. Female mice aged 6 to 8 weeks were used and assigned to groups, ten mice per group. On day 0 mice were immunized at the base of the tail with 100 ug of bovine type II collagen which was emulsified in Complete Freund's Adjuvant (CFA). On day 7, a second booster dose of collagen was administered by the same route. On day 14 the mice were injected subcutaneously with 100 ug of lipopolysaccharide (LPS). Weights were recorded weekly. Mice were inspected daily for the onset of CIA, which is characterized by erythema and edema. Upon the onset of the disease, paw widths and rear ankle widths of affected and unaffected joints were measured three times a week using a constant tension caliper. In addition, limbs were clinically evaluated and graded 0-4, where 0=normal; 1=one digit swollen; 2=inflammation present in more than one digit; 3=joint distortion with or without inflammation; and 4=ankylosis, detected by joint manipulation. The progression of all measurements was recorded to day 50. At the end of the observation period for each mouse, all paws were removed and examined histologically.
The oligonucleotide, the positive control drug (cyclophosphamide, 5 mg/kg), and the vehicle were administered daily to each mouse intraperitoneally (IP) starting on day -3 and continuing for the duration of the study. Each animal received 10 mg/kg as a bolus daily dose.
In a preliminary study, a single 10 mg/kg daily dose of […] was administered from the time of disease induction to the conclusion of the study 50 days later. Arthritis incidence was reduced from 70 to 30% in the ISIS 17044-treated group.

murine integrin α4 = experiment: Antisense inhibition of murine integrin α4 protein expression in IC-21 macrophage cells (flow cytometry, CD49d-PE); format: cell-based, mouse; conditions: for % Control / % Inhib.: Table 16
Description: Murine IC-21 macrophage cells (American Type Culture Collection, Manassas, Va.) were used for further study. Additional oligonucleotides were designed to target murine integrin α4. These are shown in Table 10; all 2' MOE nucleotides are shown in bold and remaining positions are 2' deoxy. All 2'-MOE cytosines in these compounds are 5' methylcytosines. IC-21 cells were seeded at 5×10^4 cell/well plates two days before assay. […] Wells were triplicates.
Cells (triplicates) were seeded at 2.5×10^4 cells/well in 24-well plates the day before treatment. Oligonucleotide concentrations were 0.2, 1, 5, 25 and 50 nM in 3 ug/ml LIPOFECTIN. Cells were harvested with 2 mM EDTA for 4 minutes, then 1 ml of 2% BSA, 0.2% azide was added per contents of each well.
IC-21 cells were treated with 0.3, 1, 3, 10 and 30 nM oligonucleotide with 3 ug/ml LIPOFECTIN for 4 hours. Cells were incubated for 24 hours, harvested with trypsin, stained with 2 ug/ml CD49d-PE and rat IgG2B as in previous examples.
These compounds were tested for ability to inhibit integrin α4 protein expression.

[5] = Table 23, mice with arthritis, 10 mg/kg

## 107248 (antisense CTGAGTCTGTTTTCCATTCT; chemistry not given here) [compound 107248]
[1]
  inhibition of A375 melanoma cell adherence to HUVEC: approximately 85%
[2]; 1 μM
  adherence of Jurkat cells to HUVEC: 0%
[2]; 3 μM
  adherence of Jurkat cells to HUVEC: 12%
[2]; 10 μM
  adherence of Jurkat cells to HUVEC: 32%
[2]; 30 μM
  adherence of Jurkat cells to HUVEC: 63%

## 17044 (CCGCAGCCATGCGCTCTTGG; phosphorothioate, 2'-MOE/deoxy, further chemistry not given here) [compound 17044]
[3]; 1 mg/kg
  leukocyte trafficking into the spinal cords and brains: reduce leukocyte trafficking into the spinal cords and brains
[3]; EAE experiment 4
  reduction of leukocyte influx into the central nervous system, 1.0 vs 0.1 mg/kg: dose-dependent effect with 1.0 mg/kg of 17044 causing a greater reduction of leukocyte influx into the central nervous system than did 0.1 mg/kg 17044
[3]; one experiment, EAE mice
  CD4+T cells in the central nervous system: virtually eliminated
[3]; preliminary experiments, 1 mg/kg
  leukocyte trafficking as measured by expression of VLA-4, CD4, BM-8 and CD18: significantly reduced
[4]; Table 22, 10 mg/kg daily IP
  # Paws/Mouse (mean number of affected paws at termination): 0.7 ± 0.4
  Mean Day of Onset: 20.3 ± 1.9 days
  Peak Day of Inflamm. (day from onset to time of maximum swelling): 1.6 ± 0.8 days
  Severity (total clinical score/total number of mice in group): 2.1 ± 1.1
[4]; [5]
  Mean # of Paws Involved: 2.3 ± 0.3
  Mean Clinical Score: 7.0 ± 1.0
[4]; preliminary study, single 10 mg/kg daily dose, reduced from 70
  Arthritis incidence: 30%
Murine integrin α4; Example 14
  reduction of integrin α4 expression: reduce integrin α4 expression to below starting levels
Murine integrin α4; 0.3 nM
  % Control: 100%
  % Inhib.: 0%
Murine integrin α4; 1 nM
  % Control: 81%
  % Inhib.: 19%
Murine integrin α4; 3 nM
  % Control: 32%
  % Inhib.: 68%
Murine integrin α4; 10 nM
  % Control: -9%
  % Inhib.: > 100%
